In US20090099195A1 (ASTRAZENECA AB, priority 2007, published 2009):

What was measured:
[1] = target: T1, hP2X3 (human Purinergic P2X receptors subtype 3), clone A (Homo sapiens, UniProt P56373); test: hP2X3 FLIPR calcium (Fluo-4) antagonist assay, clone A; settings: Human P2X3 FLIPR Clone A Mean IC50 (nM), RLE cells expressing hP2X3 clone A (AB016608); agonist 500 nM α,β-methylene-ATP
T1 sequence (P56373 1-397): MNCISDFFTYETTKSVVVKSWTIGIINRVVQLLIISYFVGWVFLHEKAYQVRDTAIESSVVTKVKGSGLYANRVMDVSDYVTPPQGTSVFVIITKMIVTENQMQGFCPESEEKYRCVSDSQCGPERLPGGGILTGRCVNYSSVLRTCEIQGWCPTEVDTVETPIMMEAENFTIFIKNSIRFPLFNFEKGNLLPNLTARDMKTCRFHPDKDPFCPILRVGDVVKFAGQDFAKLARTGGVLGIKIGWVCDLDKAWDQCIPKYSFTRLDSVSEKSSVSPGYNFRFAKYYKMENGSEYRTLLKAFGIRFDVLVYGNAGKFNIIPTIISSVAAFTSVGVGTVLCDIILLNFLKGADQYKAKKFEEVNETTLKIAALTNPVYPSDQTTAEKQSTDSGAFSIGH

[2] = target: T2, hP2X3 (human Purinergic P2X receptors subtype 3), clone B (Homo sapiens, UniProt P56373); test: hP2X3 FLIPR calcium (Fluo-4) antagonist assay, clone B; settings: Human P2X3 FLIPR Clone B IC50 (nM), RLE cells expressing hP2X3 clone B (NM_002559); agonist 500 nM α,β-methylene-ATP
T2 sequence (P56373 1-397): T1 sequence (P56373 1-397)

[3] = target: T3, rat P2X2/3 (rat P2X3 co-expressed with rat P2X2) (Rattus norvegicus, UniProt P49653+P49654); test: rat P2X2/3 FLIPR calcium (Fluo-4) antagonist assay; settings: Rat P2X2/3 FLIPR Mean IC50 (nM), HEK-TREX cells, tetracycline-induced rat P2X3 with constitutive rat P2X2; agonist 500 nM α,β-methylene-ATP
T3 sequence (P49654 1-397): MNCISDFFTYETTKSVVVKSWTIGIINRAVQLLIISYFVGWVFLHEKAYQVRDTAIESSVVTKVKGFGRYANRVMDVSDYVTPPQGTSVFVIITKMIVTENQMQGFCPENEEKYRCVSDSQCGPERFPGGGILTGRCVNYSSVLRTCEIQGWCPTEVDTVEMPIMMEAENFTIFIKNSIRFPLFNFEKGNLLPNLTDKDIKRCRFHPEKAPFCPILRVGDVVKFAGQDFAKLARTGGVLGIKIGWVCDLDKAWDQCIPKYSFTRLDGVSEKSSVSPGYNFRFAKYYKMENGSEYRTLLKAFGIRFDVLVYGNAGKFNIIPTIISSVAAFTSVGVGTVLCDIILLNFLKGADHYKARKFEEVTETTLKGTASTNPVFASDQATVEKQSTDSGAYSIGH
T3 sequence (P49653 1-472): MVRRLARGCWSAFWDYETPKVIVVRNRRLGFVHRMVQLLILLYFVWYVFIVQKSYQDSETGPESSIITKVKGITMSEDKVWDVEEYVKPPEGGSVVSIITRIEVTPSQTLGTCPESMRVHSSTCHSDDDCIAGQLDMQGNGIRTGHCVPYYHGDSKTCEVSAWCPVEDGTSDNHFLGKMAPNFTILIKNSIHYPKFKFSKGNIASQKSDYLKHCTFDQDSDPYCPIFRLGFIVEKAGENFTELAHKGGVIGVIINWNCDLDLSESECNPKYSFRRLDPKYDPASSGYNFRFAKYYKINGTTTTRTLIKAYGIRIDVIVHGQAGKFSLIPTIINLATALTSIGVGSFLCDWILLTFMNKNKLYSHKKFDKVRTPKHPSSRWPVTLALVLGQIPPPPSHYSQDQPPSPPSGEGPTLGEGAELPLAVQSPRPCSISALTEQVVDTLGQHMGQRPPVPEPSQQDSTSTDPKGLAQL
Method: The assay used a calcium indicator dye (Fluo-4) that emits fluorescence, the intensity of which is related to the concentration of calcium that entered the cell when P2X3 was activated and the channel opened. Activation of hP2X3 or rat P2X3 and rat P2X2/3 (from the coexpression of rat P2X3 and rat P2×2) is elicited the by P2X3 agonist α,β methylene-ATP (Sigma M6517), and the resulting fluorescence is measured with a FLIPR II™ instrument (Molecular Devices). Compounds are tested for their ability to inhibit the agonist-induced fluorescent signal.
For the rat P2X2/3 HEK-TREX cells, induction of the rat P2X3 expression is used to generate the rat P2X2/3 channels in HEK-TREX cells and performed by addition of 1 μg/mL tetracycline (Invitrogen) 24 h prior to compounds testing to the HEK-TREX expressing the rat P2X2 constitutively. On the day of the experiment, the cells and test compounds are prepared as follows. […] After preparing the compounds, the medium is removed from the cell plates by inversion. A loading solution of 30 μL assay buffer containing 4 μM of the calcium indicator dye FLUO-4 AM (Molecular Probes F14202) is added to each well using a Multidrop (Labsystems). […] The incubation is terminated by washing the cells four times in assay buffer using a Skatron Embla (Molecular Devices), and 25 μL of assay buffer was left in each well. Cell plates are then transferred to the FLIPR. Experiments are initiated by measuring a baseline fluorescence reading for 10 seconds, followed by the addition of 12.5 μL of cpds and data sampling for a total 280 seconds. The experiments are terminated by addition of 12.5 μL of a reference agonist (500 nM α,β-methylene-ATP) or buffer, producing a final assay volume of 50 μL followed by data sampling for an additional 280 seconds.
In P2X3 antagonist experiments (human and rat assays) data are analysed as normalised maximal peak fluorescence monitored following agonist addition and calculated as percent of relative fluorescent counts from control agonist. The dose-response antagonist inhibition curves are analyzed in a 4-parameter sigmoidal fit using a non-linear curve-fitting program (XLfit version 5.0.6, ID Business Solutions Limited, Guildford, UK).

| Compound | IC50 [1] [nM] | IC50 [2] [nM] | IC50 [3] [nM] |
| --- | --- | --- | --- |
| CC(C)N1Cc2c(NC(C)(C)Cc3ccc(Cl)cc3)nc(N3CCN(C)C(=O)C3)nc2C1=O [Example 69, 4-{[2-(4-chlorophenyl)-1,1-dimethylethyl]amino}-6-isopropyl-2-(4-methyl-3-oxopiperazin-1-yl)-5,6-dihydro-7H-pyrrolo[3,4-d]pyrimidin-7-one] | 86.2 | 140 | 1920 |
| COc1ccc(CC2CCCN2c2nc(N3CCN(C(C)=O)CC3)nc3c2CN(C(C)C)C3=O)cc1 (stereo not shown) [Example 286, 2-(4-acetylpiperazin-1-yl)-6-isopropyl-4-[2-[(4-methoxyphenyl)methyl]pyrrolidin-1-yl]-5H-pyrrolo[3,4-d]pyrimidin-7-one] |  | 67 | 3430 |
| CC(=O)N1CCN(c2nc3c(c(N4CCC[C@@H]4C(=O)Oc4ccccc4)n2)CN(C(C)C)C3=O)CC1 [Example 304, phenyl (2R)-1-[4-(4-acetylpiperazin-1-yl)-7-oxo-8-propan-2-yl-3,5,8-triazabicyclo[4.3.0]nona-1,3,5-trien-2-yl]pyrrolidine-2-carboxylate] |  | 71 | 8730 |
